Laboratory results taken from patent US20250295648A1 (priority 2024, published 2025).
“And” between values parts separate entries of the source, which are not always exact repeats. Equal values may be shown once.

Tests used:
5-HT1A receptors = molecular target: T1, 5-HT1A receptors (Homo sapiens, UniProt P08908); conditions: cited from earlier work
T1 sequence (P08908 1-422): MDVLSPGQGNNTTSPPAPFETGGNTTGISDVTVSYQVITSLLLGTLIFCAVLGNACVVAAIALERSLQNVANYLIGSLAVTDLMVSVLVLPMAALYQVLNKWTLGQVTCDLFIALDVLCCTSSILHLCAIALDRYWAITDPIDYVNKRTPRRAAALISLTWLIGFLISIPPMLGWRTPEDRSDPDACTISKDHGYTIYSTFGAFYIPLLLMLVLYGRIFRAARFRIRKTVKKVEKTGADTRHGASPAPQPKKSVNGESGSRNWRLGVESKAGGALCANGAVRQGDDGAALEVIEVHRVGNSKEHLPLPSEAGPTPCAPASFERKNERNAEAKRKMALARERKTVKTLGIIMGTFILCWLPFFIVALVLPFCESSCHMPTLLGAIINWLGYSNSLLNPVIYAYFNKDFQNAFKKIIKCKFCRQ

[1] = system: Parkinson's disease symptoms in PD patients with LID; assay: Unified Parkinson's Disease Rating Scale (UPDRS); conditions: for UPDRS Part 3 score (motor disability), change from baseline: p=0.0072 vs baseline
Experimental: Patients were rated for dyskinesia at baseline and on days 28 (at end of up-titration period) and 42 (end of stable dosing period). Because the level of dyskinesia experienced by patients can vary over time, they were given 150% (i.e., 1.5×) of their regular L-DOPA dose (up to a maximum of 250 mg) as a challenge 30 min before each dyskinesia assessment to improve comparability between patients and between visits. Patients were filmed 30, 60 and 90 min after dosing with L-DOPA (˜5 min of filming each time). LID was assessed using the Unified Dyskinesia Rating Scale (UDysRS). Changes from baseline are shown for total score (i.e., Parts 1 to 4), for total objective score (i.e., Parts 3+4), and for the sum of Part 3 objective impairment assessment scores. Because objective LID assessment was carried out at 3 time-points (30, 60 and 90 min) following L-DOPA challenge, the above parameters were analyzed based on the most severe of the three scores as well as on the average score of the 3 time points. PD symptoms were assessed by Unified Parkinson's Disease Rating Scale (UPDRS) 30-90 min after the 150% L-DOPA challenge (i.e., when the patient was ON). Changes from baseline are shown for total score (i.e., Parts 1 to 4) and individual scores for each Part, 1, 2, 3 and 4.
The UPDRS consists of 4 parts: • v. Part I assesses non-motor experiences of daily living, such as cognitive impairment and depressed mood. • w. Part II assesses motor experiences of daily living, such as speech and eating tasks. • x. Part III is a motor examination conducted by the clinician, including assessments of symptoms such as rigidity and tremor. • y. Part IV is an assessment of motor complications, such as time spent with dyskinesia and functional impact of dyskinesias.
Each item in the UPDRS is scored from 0 to 4, and the individual scores are summed to give a total score that indicates the severity of the disease, with a score of 0 indicating no disability and a score of 199 being the most severe (indicating total disability).
Change from baseline in UPDRS combined scores (Parts I, II, III and IV) to Visit 6 (Day 28) and Visit 7 (Day 42) respectively would be summarized using descriptive statistics. […] The same analysis would be done for UPDRS Part III only.
The baseline value of the dependent variable has been included in the model as a continuous covariate. Kenward-Roger's improved approximation for degrees of freedom (2009) has been used; ^b)=p-value for the difference between NLX-112 at the assessment timepoint and at baseline; ^c)=p-value for the difference between placebo at the assessment timepoint and at baseline; ^d)=p-value for the difference between NLX-112 and placebo absolute change from baseline at the assessment timepoint.

[2] = 5 patients co-treated with amantadine
[3] = Full analysis set, Visit 2 Baseline
[4] = Full analysis set, Visit 6 Clinic Efficacy Visit
[5] = Full analysis set, Visit 7 Clinic Efficacy Visit
[6] = Full analysis set, Visit 9 Follow-up Clinic Visit
[7] = Visit 2 Baseline, per protocol analysis set, N = 15
[8] = Visit 6 Clinic Efficacy Visit (Day 28), per protocol analysis set, N = 15
[9] = Visit 7 Clinic Efficacy Visit (Day 42), per protocol analysis set, N = 15
[10] = Visit 9 Follow-up Clinic Visit, per protocol analysis set, N = 15
[11] = individual patients A-E co-treated with amantadine
[12] = per-protocol set (n = 15), Baseline
[13] = per-protocol set, Δ D 28 (end of up-titration), p < 0.05 vs baseline
[14] = per-protocol set, Δ D 42 (end of stable dosing)
[15] = per-protocol set, Δ D 42 (end of stable dosing), p < 0.01 vs baseline

SMILES: Cc1ccc(CNCC2(F)CCN(C(=O)c3ccc(F)c(Cl)c3)CC2)nc1 [NLX-112, (3-chloro-4-fluoro-phenyl)-[4-fluoro-4-{[(5-methyl-pyridin-2-ylmethyl)-amino]-methyl}piperidin-1-yl]methanone]
- agonist efficacy at 5-HT1A receptors (5-HT1A receptors): full agonist properties
- selectivity for 5-HT1A receptors (5-HT1A receptors): exceptional selectivity
- UPDRS Part 3, mean change from baseline [1, 2]: −4.2
- UPDRS Total, mean change from baseline [1, 2]: −6.6
- UPDRS Part 2 (motor experiences of daily living), vs baseline ([1]; Day 28): statistically significant reduction
- UPDRS total score (Parts 1-4), change from baseline ([1]; Day 28, PPS, p=0.0005 vs baseline): −6.5 points
- UPDRS Part 3 score (motor disability), change from baseline ([1]; Day 28, PPS): −3.7 points
- UPDRS total score (Parts 1-4), change from baseline ([1]; Day 42, PPS, p=0.0021 vs baseline): −5.7 points
- UPDRS Part 3 score (motor disability), change from baseline ([1]; Day 42, PPS): −3.7 points
- UPDRS total score absolute change from baseline, NLX-112 vs placebo ([1]; Days 28 or 42): no significant differences
- UPDRS Part 3 Motor Total, collected value, mean [1, 3]: 17.8
- UPDRS Part 3 Motor Total, collected value, median [1, 3]: 16.0
- UPDRS Total Score (all Parts), collected value, Mean [1, 3]: 38.3
- UPDRS Total Score (all Parts), collected value, Median [1, 3]: 37.5
- UPDRS Part 3 Motor Total, absolute change from baseline, mean [1, 4]: −3.7
- UPDRS Part 3 Motor Total, absolute change from baseline, median [1, 4]: −4.0
- UPDRS Part 3 Motor Total, collected value, mean [1, 4]: 13.9
- UPDRS Part 3 Motor Total, collected value, median [1, 4]: 14.0
- UPDRS Part 3 Motor Total, relative change from baseline (%), mean [1, 4]: −21.8%
- UPDRS Part 3 Motor Total, relative change from baseline (%), median [1, 4]: −21.4%
- UPDRS Total Score (all Parts), absolute change from baseline, Mean [1, 4]: −6.5
- UPDRS Total Score (all Parts), absolute change from baseline, Median [1, 4]: −5.0
- UPDRS Total Score (all Parts), collected value, Mean [1, 4]: 30.5
- UPDRS Total Score (all Parts), collected value, Median [1, 4]: 29.0
- UPDRS Total Score (all Parts), relative change from baseline (%), Mean [1, 4]: −17.4%
- UPDRS Total Score (all Parts), relative change from baseline (%), Median [1, 4]: −15.2%
- UPDRS Part 3 Motor Total, absolute change from baseline, mean [1, 5]: −3.7
- UPDRS Part 3 Motor Total, absolute change from baseline, median [1, 5]: −4.0
- UPDRS Part 3 Motor Total, collected value, mean [1, 5]: 13.9
- UPDRS Part 3 Motor Total, collected value, median [1, 5]: 14.0
- UPDRS Part 3 Motor Total, relative change from baseline (%), mean [1, 5]: −21.5%
- UPDRS Part 3 Motor Total, relative change from baseline (%), median [1, 5]: −33.3%
- UPDRS Total Score (all Parts), absolute change from baseline, Mean [1, 5]: −5.7
- UPDRS Total Score (all Parts), absolute change from baseline, Median [1, 5]: −5.0
- UPDRS Total Score (all Parts), collected value, Mean [1, 5]: 31.3
- UPDRS Total Score (all Parts), collected value, Median [1, 5]: 30.0
- UPDRS Total Score (all Parts), relative change from baseline (%), Mean [1, 5]: −15.7%
- UPDRS Total Score (all Parts), relative change from baseline (%), Median [1, 5]: −19.2%
- UPDRS Part 3 Motor Total, absolute change from baseline, mean [1, 6]: −2.7
- UPDRS Part 3 Motor Total, absolute change from baseline, median [1, 6]: −2.0
- UPDRS Part 3 Motor Total, collected value, mean [1, 6]: 14.8
- UPDRS Part 3 Motor Total, collected value, median [1, 6]: 13.0
- UPDRS Part 3 Motor Total, relative change from baseline (%), mean [1, 6]: −11.2%
- UPDRS Part 3 Motor Total, relative change from baseline (%), median [1, 6]: −14.3%
- UPDRS Total Score (all Parts), absolute change from baseline, Mean [1, 6]: −4.4
- UPDRS Total Score (all Parts), absolute change from baseline, Median [1, 6]: −3.0
- UPDRS Total Score (all Parts), collected value, Mean [1, 6]: 32.6
- UPDRS Total Score (all Parts), collected value, Median [1, 6]: 31.0
- UPDRS Total Score (all Parts), relative change from baseline (%), Mean [1, 6]: −9.57%
- UPDRS Total Score (all Parts), relative change from baseline (%), Median [1, 6]: −11.5%
- UPDRS Part 3 Motor Total, collected value, mean [1, 7]: 17.5
- UPDRS Part 3 Motor Total, collected value, median [1, 7]: 17.0
- UPDRS Total Score, collected value, mean [1, 7]: 37.0
- UPDRS Total Score, collected value, median [1, 7]: 36.0
- UPDRS Part 3 Motor Total, absolute change from baseline, mean [1, 8]: −3.7
- UPDRS Part 3 Motor Total, absolute change from baseline, median [1, 8]: −4.0
- UPDRS Part 3 Motor Total, collected value, mean [1, 8]: 13.9
- UPDRS Part 3 Motor Total, collected value, median [1, 8]: 14.0
- UPDRS Part 3 Motor Total, relative change from baseline (%), mean [1, 8]: −21.8%
- UPDRS Part 3 Motor Total, relative change from baseline (%), median [1, 8]: −21.4%
- UPDRS Total Score, absolute change from baseline, mean [1, 8]: −6.5
- UPDRS Total Score, absolute change from baseline, median [1, 8]: −5.0
- UPDRS Total Score, collected value, mean [1, 8]: 30.5
- UPDRS Total Score, collected value, median [1, 8]: 29.0
- UPDRS Total Score, relative change from baseline (%), mean [1, 8]: −17.4%
- UPDRS Total Score, relative change from baseline (%), median [1, 8]: −15.2%
- UPDRS Part 3 Motor Total, absolute change from baseline, mean [1, 9]: −3.7
- UPDRS Part 3 Motor Total, absolute change from baseline, median [1, 9]: −4.0
- UPDRS Part 3 Motor Total, collected value, mean [1, 9]: 13.9
- UPDRS Part 3 Motor Total, collected value, median [1, 9]: 14.0
- UPDRS Part 3 Motor Total, relative change from baseline (%), mean [1, 9]: −21.5%
- UPDRS Part 3 Motor Total, relative change from baseline (%), median [1, 9]: −33.3%
- UPDRS Total Score, absolute change from baseline, mean [1, 9]: −5.7
- UPDRS Total Score, absolute change from baseline, median [1, 9]: −5.0
- UPDRS Total Score, collected value, mean [1, 9]: 31.3
- UPDRS Total Score, collected value, median [1, 9]: 30.0
- UPDRS Total Score, relative change from baseline (%), mean [1, 9]: −15.7%
- UPDRS Total Score, relative change from baseline (%), median [1, 9]: −19.2%
- UPDRS Part 3 Motor Total, absolute change from baseline, mean [1, 10]: −2.7
- UPDRS Part 3 Motor Total, absolute change from baseline, median [1, 10]: −2.0
- UPDRS Part 3 Motor Total, collected value, mean [1, 10]: 14.8
- UPDRS Part 3 Motor Total, collected value, median [1, 10]: 13.0
- UPDRS Part 3 Motor Total, relative change from baseline (%), mean [1, 10]: −11.2%
- UPDRS Part 3 Motor Total, relative change from baseline (%), median [1, 10]: −14.3%
- UPDRS Total Score, absolute change from baseline, mean [1, 10]: −4.4
- UPDRS Total Score, absolute change from baseline, median [1, 10]: −3.0
- UPDRS Total Score, collected value, mean [1, 10]: 32.6
- UPDRS Total Score, collected value, median [1, 10]: 31.0
- UPDRS Total Score, relative change from baseline (%), mean [1, 10]: −9.57%
- UPDRS Total Score, relative change from baseline (%), median [1, 10]: −11.5%
- reduction in UPDRS Part 3 score, more than placebo ([1]; day 42): 3.9 points
- UPDRS Part 1 (non-motor experiences of daily living), vs baseline ([1]; days 28 and 42): no statistically significant changes from baseline
- UPDRS Part IV (motor complications), vs baseline ([1]; days 28 and 42): significant reduction
- UPDRS Part 3, Δ from baseline [1, 11]: −9 and −13 and +3 and +2 and −4
- UPDRS Total, Δ from baseline [1, 11]: −15 and −11 and −5 (2×) and +3
- patients on NLX-112 and amantadine with numerical reductions in PD symptoms (UPDRS) ([1]; of the 5 patients): 4
- UPDRS Part 1, mean [1, 12]: 1.0
- UPDRS Part 2, mean [1, 12]: 10.7
- UPDRS Part 3, mean [1, 12]: 17.5
- UPDRS Part 4, mean [1, 12]: 8.0
- UPDRS Total (Parts 1 to 4), mean [1, 12]: 37.0
- UPDRS Part 1, mean change from baseline ([1]; per-protocol set, Δ D 28 (end of up-titration)): 0.2
- UPDRS Total (Parts 1 to 4), mean change from baseline ([1]; per-protocol set, Δ D 28 (end of up-titration), p < 0.001 vs baseline): −6.5
- UPDRS Part 3, mean change from baseline ([1]; per-protocol set, Δ D 28 (end of up-titration), p < 0.01 vs baseline, p < 0.05 vs placebo): −3.7
- UPDRS Part 2, mean change from baseline [1, 13]: −2.1
- UPDRS Part 4, mean change from baseline [1, 13]: −0.9
- UPDRS Part 1, mean change from baseline [1, 14]: 0.1
- UPDRS Part 2, mean change from baseline [1, 14]: −1.2
- UPDRS Part 3, mean change from baseline [1, 15]: −3.7
- UPDRS Total (Parts 1 to 4), mean change from baseline [1, 15]: −5.7
- UPDRS Part 4, mean change from baseline ([1]; per-protocol set, Δ D 42 (end of stable dosing), p < 0.05 vs baseline): −0.9
